Laboratory results reported in paper PMC8282797, “Strictly regulated agonist-dependent activation of AMPA-R is the key characteristic of TAK-653 for robust synaptic responses and cognitive improvement” (Scientific Reports, 2021).

Key:
AMPA-R = experiment: Ca2+ influx assay using rat primary hippocampal neurons; type: cell-based
Experimental: Ca^2+ influx assay using primary neurons was performed as previously described. After 5 days of culture, the cells plated on poly-D-lysine coated 96-well plates (Corning Incorporated) at 2 × 10^4 or 5 × 10^4 cells/well were used for experiments with PF-04958242 or TAK-653, respectively. Fluorescent calcium indicator dye solution (Calcium4 assay Kit, Dojindo, Kumamoto, Japan) in Ca^2+ reaction buffer (DMEM, HEPES and BSA) containing Probenecid (Dojindo) was added and incubated for 60 min in 5% CO2 at 37 °C. After washing once, the relative increases in intracellular Ca^2+ levels stimulated by compounds in the presence and absence of AMPA were monitored. Details are described in the Supplementary Information.
Primary cultures of hippocampal neuronal cells were prepared from fetal Sprague-Dawley rats at 19 days of gestation. Rat embryos were decapitated and their whole brains were isolated. Hippocampi were dissected in ice-cold Hanks' Balanced Salt Solutions (HBSS) under a microscope and then dispersed into cells using a neural cell dispersion kit (Sumitomo Bakelite Co., Ltd., Tokyo, Japan). The dissociated cells were suspended in Neurobasal medium containing B27 supplement (Thermo Fisher Scientific Inc.), 2 mM L-glutamine (Lonza, Basel, Switzerland), 100 U/mL penicillin (Lonza), 100 μg/mL streptomycin (Lonza) and 20 μg/mL gentamicin sulfate (Lonza). The cells were plated on poly-D-lysine coated 96-well plates (Corning Incorporated) for Ca^2+ influx assay or on poly-L-lysine coated 96-well plates (Sumitomo Bakelite) for measurement of BDNF protein levels and cultured in a humidified CO2 incubator with 5% CO2 at 37°C.
After 5 days of culture, the cells at 2×10^4 or 5×10^4 cells/well were used for experiments with PF-04958242 or TAK-653, respectively. For TAK-653, after removal of culture medium, 75 µL of fluorescent calcium indicator dye solution (Calcium4 assay Kit, Dojindo, Kumamoto, Japan) in Ca^2+ reaction buffer (DMEM, 10 mM HEPES and 0.1% BSA) containing 1.25 mM Probenecid (Dojindo) was added and incubated for 60 min in 5% CO2 at 37°C and washed once using 75 µL of fluorescent calcium indicator dye solution. After addition of 75 µL of fluorescent calcium indicator dye solution to each well again, the relative increases in intracellular Ca^2+ levels by compounds in the presence and absence of 5 μM AMPA were monitored for 8.5 min by fluorometric imaging plate reader. Activity of the compound was defined as fluorescence intensity integrated over the entire period of measurement. Intensity of 0% was defined as activity in the presence of only DMSO, while 100% was defined as activity in the presence of 5 μM AMPA and 10 μM HBT1. For PF-04958242, after removal of culture medium, 90 µL of fluorescent calcium indicator dye solution (Calcium4 assay Kit, Dojindo) in Ca^2+ reaction buffer (DMEM, 20 mM HEPES and 0.1% BSA) containing 2.5 mM Probenecid (Dojindo) was added and incubated for 60 min in 5% CO2 at 37°C. After addition of 90 µL of fluorescent calcium indicator dye solution to each well again, the relative increases in intracellular Ca^2+ levels by compounds in the presence and absence of 1 μM AMPA were monitored for 2 min in a microplate reader (CellLux, PerkinElmer, Waltham, MA, USA). Activity of the compound was defined as fluorescence intensity integrated over the entire period of measurement. 100% was defined as activity in the presence of 1 μM AMPA and 10 μM HBT1, while intensity of 0% was defined as activity in the presence of 1 μM AMPA or only DMSO for potentiator effect or agonistic effect, respectively. EC50 values were calculated by logistic regression analysis.

naïve rats = experiment: Novel object recognition (NOR) test; type: in vivo, rat; details: p.o., rats
Experimental: NOR tests were performed using male Long-Evans rats at 6 weeks old as previously described, with some modifications. On day 1, rats were allowed to habituate to the empty test box (a gray-colored polyvinyl chloride box (40 × 40 × 50 cm)) for 10 min individually. Testing comprised two 3-min trials called the acquisition trial and the retention trial that were separated by 48 h inter-trial intervals (ITIs). On day 2, in the acquisition trial, rats were allowed to explore two identical objects (A1 and A2) for 3 min. On day 4, in the retention trial, rats were again allowed to explore a familiar object (A3) and a novel object (B) for 3 min. The object exploration was defined as rats' licking, sniffing or touching the object with forelimbs while sniffing. TAK-653 or AMPA was orally or intraperitoneally, respectively, 2 h or 0.5 h prior to the acquisition and the retention trials. The NDI was calculated using the following equation: novel object interaction/total interaction × 100 (%).

[1] = system: MK-801-induced working memory deficit in rats; experiment: Radial arm maze (RAM) test, MK-801-induced working memory deficit; type: in vivo, rat; details: given 0.5 h before MK-801 0.08 mg/kg, s.c.
Experimental: RAM tests were performed using 9-week-old male Long-Evans rats as previously described with a minor modification. Each arm was 50 cm long, 10 cm wide and 40 cm high, and the maze was elevated 50 cm above the floor. Long-Evans rats were food-restricted to 85% of free-feeding body weight throughout the experimental period. Rats were well trained to collect pellets placed on the edge of each arm. The learning criterion for the testing session was defined as 2 errors or fewer for 2 consecutive days. In the testing session, each rat was placed on the maze facing the fixed arm at the start of the trial. The entry of rats into each arm was recorded in sequence until all pellets in the 8 arms were consumed, or 5 min had elapsed. […] Thirty min after dosing of vehicle or MK-801, rats were placed on the maze. Details are described in the Supplementary Information.
The experiment was performed using 9-week-old male Long-Evans rats as described previously (Zajaczkowski et al., 1996) with a minor modification. Each arm was 50 cm long, 10 cm wide and 40 cm high, and the maze was elevated 50 cm above the floor. After being fasted for 24 h, male Long-Evans rats were food-restricted to 85% of free-feeding body weight on the first day of exposure to the maze and throughout the experimental period. The experiment consists of two sessions, training and testing session. In the training session, rats were habituated to the maze and then trained. Reinforcement consisted of 3 food pellets (45 mg each) in the food cup was used. On the first day of habituation to the maze, reinforcements were placed near the entrance and at the mid-point of each arm. Three rats were placed on the maze at one time and allowed to explore and consume the pellets for 8 min. On the second day of habituation, each rat was placed on the maze and allowed 5 min to consume the pellets placed at the mid-point and in the food cup at the end of each arm. From the third day, reinforcement was placed in the food cup at the end of each arm. Rats were well trained to collect pellets placed on the edge of each arm. The learning criterion for the testing session was defined as 2 errors or less for two consecutive days. In the previous day of the testing session, baseline level of performance was qualified to confirm that rats completed collecting all pellets placed in the 8 arms with two errors or less. In the testing session, each rat was placed on the maze facing away from the experimenter and facing the fixed arm at the start of the trial. The entry of rats into each arm was recorded in sequence. Rats were allowed to explore until all pellets in the 8 arms were consumed, or 5 min had elapsed. Entry into an arm previously chosen was counted as an error. […] […] Thirty min after dosing of vehicle or MK-801, rats were placed on the maze. Data were indicated as the mean ± SEM in the testing session.

## CC(C)S(=O)(=O)N[C@H]1COC[C@H]1Oc1ccc(-c2ccc(C#N)s2)cc1 [PF-04958242, N-{(3S,4S)-4-[4-(5-cyano-2-thienyl)phenoxy]tetrahydrofuran-3-yl}propane-2-sulfonamide]
AMPA-R
  Agonistic effect: Ca2+ increase in the absence of AMPA: potently produced a Ca^2+ increase in the absence of AMPA
naïve rats
  Dose improving visual learning and memory in NOR test: ≥ 0.1 mg/kg
[1]
  Working memory in the RAM test: did not improve
